The target of one data set is hERG potassium channel (Homo sapiens (Human), UniProt Q12809). In words: hERG binding assay (automated patch clamp, CHO cells). The data set is classed as cell-based. Conditions: CHO cell line, Nanion Syncropatch 384PE. The procedure, abridged:
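CHO cells on automated patch clamp; compounds tested in quadruplicate. Currents evoked every 15 s from −80 mV holding by a 500 ms step to 60 mV then 500 ms to −40 mV.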

Data set [1] concerns the target recombinant human Estrogen Receptor alpha ligand binding domain (ER alpha-LBD (GST)) (Homo sapiens (Human), UniProt P03372). In words: ERα binding assay (LanthaScreen TR-FRET competition). The settings on record: TR-FRET, displacement of Fluormone ES2. The method, boiled down: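 Competition binding to GST-tagged human ERα ligand-binding domain, read by LanthaScreen TR-FRET: Tb-anti-GST antibody labels the receptor and compounds displace a fluorescent tracer, lowering the signal. IC50 was taken from dose-response curve fitting.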

Data set [2] in a line: Thermodynamic solubility (shake-flask). Conditions: aqueous phosphate buffer, 25 °C, pH 7.4, aqueous buffer, thermodynamic from solid, aqueous phosphate buffer pH 7.4, 24 hours. In kind it is physicochemical. The method, boiled down:
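Shake-flask method starting from 10 mM DMSO stocks, which are dried before use. Residue equilibrated 24 h at 25° C. in aqueous phosphate buffer, pH 7.4. Dissolved fraction separated and quantified by UPLC/MS/MS, with QC samples in each run.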

The nature of data set [3]: Human plasma protein binding (equilibrium dialysis). The data set is classed as in vitro ADME. The settings on record: dialysis 18 hours. The method, boiled down:
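Fraction unbound (fu %) in human plasma, from LC/MSMS of plasma and buffer sides (7-point plasma calibration) after 18 h rapid equilibrium dialysis. Single determinations, with compounds pooled up to 10 per plasma pool.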

Data set [4] can be described thus: log D (shake flask, 1-octanol/aqueous buffer). In kind it is physicochemical. The settings on record: pH 7.4, 1-octanol/aqueous buffer. The method, boiled down: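 Distribution between 1-octanol and aqueous buffer at pH 7.4 was measured by shake flask, with compounds run in mixtures of ten. Relative concentrations in each phase were quantified by UPLC with quantitative MS. Caffeine served as a low-log D QC sample in all runs.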

pIC50: −log10 of the molar value.

Chain of recombinant human Estrogen Receptor alpha ligand binding domain (ER alpha-LBD (GST)) (P03372 307-554): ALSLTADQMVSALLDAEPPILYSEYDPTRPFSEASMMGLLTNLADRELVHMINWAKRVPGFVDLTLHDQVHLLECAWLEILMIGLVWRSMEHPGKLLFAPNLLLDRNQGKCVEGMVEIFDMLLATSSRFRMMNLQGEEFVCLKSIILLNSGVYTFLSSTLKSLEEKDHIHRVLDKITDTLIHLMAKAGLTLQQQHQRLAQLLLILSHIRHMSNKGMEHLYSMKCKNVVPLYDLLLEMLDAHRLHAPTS
Chain of hERG potassium channel (Q12809 whole entry): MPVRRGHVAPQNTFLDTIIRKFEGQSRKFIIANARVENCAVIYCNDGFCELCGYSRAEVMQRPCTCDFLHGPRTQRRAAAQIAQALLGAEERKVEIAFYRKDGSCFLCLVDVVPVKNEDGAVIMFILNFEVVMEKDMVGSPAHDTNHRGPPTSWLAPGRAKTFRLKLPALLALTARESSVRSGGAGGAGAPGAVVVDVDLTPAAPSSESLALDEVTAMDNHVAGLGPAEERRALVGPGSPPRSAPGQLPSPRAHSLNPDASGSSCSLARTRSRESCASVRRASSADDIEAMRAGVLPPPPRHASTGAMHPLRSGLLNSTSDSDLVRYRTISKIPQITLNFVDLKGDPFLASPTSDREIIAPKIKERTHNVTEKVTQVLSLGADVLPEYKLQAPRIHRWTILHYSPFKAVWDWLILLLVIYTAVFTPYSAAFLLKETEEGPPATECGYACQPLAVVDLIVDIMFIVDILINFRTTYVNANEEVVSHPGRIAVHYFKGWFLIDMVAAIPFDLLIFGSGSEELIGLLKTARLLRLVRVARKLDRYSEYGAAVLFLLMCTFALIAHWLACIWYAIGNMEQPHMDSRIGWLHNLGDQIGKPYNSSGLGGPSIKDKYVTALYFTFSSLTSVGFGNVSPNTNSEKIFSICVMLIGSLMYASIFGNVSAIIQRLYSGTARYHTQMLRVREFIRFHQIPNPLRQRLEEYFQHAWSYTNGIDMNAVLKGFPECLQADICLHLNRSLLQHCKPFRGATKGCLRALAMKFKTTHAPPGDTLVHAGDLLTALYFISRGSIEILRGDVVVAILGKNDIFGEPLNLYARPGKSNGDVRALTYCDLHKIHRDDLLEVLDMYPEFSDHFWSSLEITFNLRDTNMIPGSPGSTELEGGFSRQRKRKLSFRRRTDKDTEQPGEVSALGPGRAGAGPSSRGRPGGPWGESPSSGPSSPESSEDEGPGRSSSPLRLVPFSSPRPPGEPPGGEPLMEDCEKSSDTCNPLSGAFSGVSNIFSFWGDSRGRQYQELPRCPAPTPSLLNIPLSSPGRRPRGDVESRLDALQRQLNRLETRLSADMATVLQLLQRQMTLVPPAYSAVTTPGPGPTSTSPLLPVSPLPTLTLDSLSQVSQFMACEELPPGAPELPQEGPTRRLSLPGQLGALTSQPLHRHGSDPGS

With `C[C@@H]1Cc2c(ccc3[nH]ncc23)[C@@H](c2ccc(NC3CN(CCCF)C3)cn2)N1CC1(F)CC1` [Example 3, 6-((6S,8R)-7-((1-fluorocyclopropyl)methyl)-8-methyl-6,7,8,9-tetrahydro-3H-pyrazolo[4,3-f]isoquinolin-6-yl)-N-(1-(3-fluoropropyl)azetidin-3-yl)pyridin-3-amine], the pIC50 at hERG potassium channel is < 4.44; in data set [1], 8.19. Moreover, the solubility at 24 h in data set [2] is > 941 µM. Besides, the “Human plasma protein binding (% free)” value in data set [3] is on record as 26 % free. The compound also showed a logD in data set [4] of 2.5.

Values taken from patent US10131663B2, “Chemical compounds” (AstraZeneca AB, priority 2016, dated 2018).
